Laboratory results: patent US10100097B2, “GIP-GLP-1 dual agonist compounds and methods” (Zealand Pharma A/S, priority 2012, dated 2018)
Square brackets hold non-standard residues; d marks the D form. Peptide text beside a SMILES is read from it. Aib = CC(C)(N)C(=O)O

Molecular target: T1, human GLP-1 R (Homo sapiens, UniProt P43220)
T1 construct: expressed in transfected cells
Test: Human GLP-1 receptor (GLP-1 R) activity assay, cAMP induction (AlphaScreen cAMP kit)
Type: cell-based
Conditions: HEK293 cells expressing the human GLP-1 R, 15 min at 37° C., average values of multiple determinations, read-out: GLP1 R (EC50 in nM)
Protocol: Human GIP Receptor (GIP R) and GLP-1 Receptor (GLP-1 R) Activity Assay
In vitro effects of peptide conjugates of the invention were assessed by measuring the induction of cAMP following stimulation of the respective receptor by GIP, GLP1 or analogues of these, as outlined in the invention, using the AlphaSceen® cAMP kit from Perkin-Elmer according to instructions. Briefly. HEK293 cells expressing the human GIP R or GLP-1 R (stable cell lines generated through transfection of the cDNA for human GIP R or GLP-1 and selection of stable clones) were seeded at 30,000 cells/well in 96-well microtiter plates coated with 0.01% poly-L-lysine, and grown for 1 day in culture in 200 μl growth medium (DMEM, 10% FCS, Penicillin (100 IU/ml), Streptomycin (100 μg/ml)). On the day of analysis, growth medium was removed and the cells were washed once with […] Tyrode's buffer (Tyrode's Salts (9.6 g/1), 10 mM HEPES, pH 7.4). […] The Assay buffer was removed and cells are lysed in 80 μl Lysis buffer (0.1% w/v BSA, 5 mM HEPES, 0.3% v/v Tween-20) per well. From each well 10 μl lysed cells was transferred to a 384-well plate and mixed with 15 μl bead-mix (1 Unit/15 μl anti-cAMP Acceptor Beads, 1 Unit/15 μl Donor Beads, and 1 Unit/15 μl Biotinylated cAMP in Assay Buffer). The plates were mixed and incubated in the dark for an hour at room temperature before measuring using an Envision™ plate reader (Perkin-Elmer).

T1 sequence (P43220 24-463): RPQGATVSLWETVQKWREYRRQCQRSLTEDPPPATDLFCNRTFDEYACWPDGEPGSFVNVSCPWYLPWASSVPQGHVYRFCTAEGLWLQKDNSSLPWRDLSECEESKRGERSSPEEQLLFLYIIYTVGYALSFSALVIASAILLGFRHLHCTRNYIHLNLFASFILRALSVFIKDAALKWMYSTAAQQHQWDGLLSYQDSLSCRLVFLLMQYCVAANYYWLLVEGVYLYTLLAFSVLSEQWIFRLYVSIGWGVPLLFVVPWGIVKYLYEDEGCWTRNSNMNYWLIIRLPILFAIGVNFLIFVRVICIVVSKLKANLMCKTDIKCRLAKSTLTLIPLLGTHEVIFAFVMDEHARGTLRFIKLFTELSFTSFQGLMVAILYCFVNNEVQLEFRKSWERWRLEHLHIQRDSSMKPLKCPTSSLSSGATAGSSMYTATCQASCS

SMILES | EC50
CC[C@H](C)[C@H](NC(=O)[C@H](CO)NC(=O)[C@H](Cc1ccc(O)cc1)NC(=O)[C@H](CC(=O)O)NC(=O)[C@H](CO)NC(=O)[C@@H](NC(=O)[C@H](Cc1ccccc1)NC(=O)[C@@H](NC(=O)CNC(=O)[C@H](CCC(=O)O)NC(=O)C(C)(C)NC(=O)[C@@H](N)Cc1ccc(O)cc1)[C@@H](C)O)[C@@H](C)O)C(=O)NC(C)(C)C(=O)N[C@@H](CC(C)C)C(=O)N[C@@H](CC(=O)O)C(=O)N[C@@H](CCCCN)C(=O)N[C@@H](CCCCN)C(=O)N[C@@H](C)C(=O)N[C@@H](CCC(N)=O)C(=O)N[C@@H](CCCNC(=N)N)C(=O)N[C@@H](C)C(=O)N[C@@H](Cc1ccccc1)C(=O)N[C@H](C(=O)N[C@@H](CCC(=O)O)C(=O)N[C@@H](Cc1c[nH]c2ccccc12)C(=O)N[C@@H](CC(C)C)C(=O)N[C@@H](CC(C)C)C(=O)N[C@@H](C)C(=O)N[C@@H](CCC(N)=O)C(=O)NCC(=O)N1CCC[C@H]1C(=O)N[C@@H](CO)C(=O)N[C@@H](CO)C(=O)NCC(=O)N[C@@H](C)C(=O)N1CCC[C@H]1C(=O)N1CCC[C@H]1C(=O)N1CCC[C@H]1C(=O)N[C@@H](CO)C(N)=O)C(C)C [Compound 2] (H-Y[Aib]EGTFTSDYSI[Aib]LDKKAQRAFVEWLLAQGPSSGAPPPS-NH2) | 0.015 nM
CC[C@H](C)[C@H](NC(=O)[C@H](CO)NC(=O)[C@H](Cc1ccc(O)cc1)NC(=O)[C@H](CC(=O)O)NC(=O)[C@H](CO)NC(=O)[C@@H](NC(=O)[C@H](Cc1ccccc1)NC(=O)[C@@H](NC(=O)CNC(=O)[C@H](CCC(=O)O)NC(=O)C(C)(C)NC(=O)[C@@H](N)Cc1ccc(O)cc1)[C@@H](C)O)[C@@H](C)O)C(=O)N[C@@H](C)C(=O)N[C@@H](CC(C)C)C(=O)N[C@@H](CC(=O)O)C(=O)N[C@@H](CCCCN)C(=O)N[C@@H](CCCCN)C(=O)N[C@@H](C)C(=O)N[C@@H](CCC(N)=O)C(=O)N[C@@H](CCCNC(=N)N)C(=O)N[C@@H](C)C(=O)N[C@@H](Cc1ccccc1)C(=O)N[C@H](C(=O)N[C@@H](CC(N)=O)C(=O)N[C@@H](Cc1c[nH]c2ccccc12)C(=O)N[C@@H](CC(C)C)C(=O)N[C@@H](CC(C)C)C(=O)N[C@@H](C)C(=O)NC(C)(C)C(=O)N[C@@H](CCCCN)C(N)=O)C(C)C [Compound 12] (H-Y[Aib]EGTFTSDYSIALDKKAQRAFVNWLLA[Aib]K-NH2) | 0.01 nM
CC[C@H](C)[C@H](NC(=O)[C@H](CO)NC(=O)[C@H](Cc1ccc(O)cc1)NC(=O)[C@H](CC(=O)O)NC(=O)[C@H](CO)NC(=O)[C@@H](NC(=O)[C@H](Cc1ccccc1)NC(=O)[C@@H](NC(=O)CNC(=O)[C@H](CCC(=O)O)NC(=O)C(C)(C)NC(=O)[C@@H](N)Cc1ccc(O)cc1)[C@@H](C)O)[C@@H](C)O)C(=O)N[C@@H](Cc1ccc(O)cc1)C(=O)N[C@@H](CC(C)C)C(=O)N[C@@H](CCC(=O)O)C(=O)N[C@@H](CCCCN)C(=O)N[C@@H](CCCCN)C(=O)N[C@@H](C)C(=O)N[C@@H](CCC(N)=O)C(=O)N[C@@H](CCCNC(=N)N)C(=O)N[C@@H](C)C(=O)N[C@@H](Cc1ccccc1)C(=O)N[C@H](C(=O)N[C@@H](CC(N)=O)C(=O)N[C@@H](Cc1c[nH]c2ccccc12)C(=O)N[C@@H](CC(C)C)C(=O)N[C@@H](CC(C)C)C(=O)N[C@@H](C)C(=O)NC(C)(C)C(=O)N[C@@H](CCCCN)C(N)=O)C(C)C [Compound 14] (H-Y[Aib]EGTFTSDYSIYLEKKAQRAFVNWLLA[Aib]K-NH2) | 0.0087 nM
CC[C@H](C)[C@H](NC(=O)[C@H](CO)NC(=O)[C@H](Cc1ccc(O)cc1)NC(=O)[C@H](CC(=O)O)NC(=O)[C@H](CO)NC(=O)[C@@H](NC(=O)[C@H](Cc1ccccc1)NC(=O)[C@@H](NC(=O)CNC(=O)[C@H](CCC(=O)O)NC(=O)C(C)(C)NC(=O)[C@@H](N)Cc1ccc(O)cc1)[C@@H](C)O)[C@@H](C)O)C(=O)N[C@@H](C)C(=O)N[C@@H](CC(C)C)C(=O)N[C@@H](CCC(=O)O)C(=O)N[C@@H](CCCCN)C(=O)N[C@@H](CCCCN)C(=O)N[C@@H](C)C(=O)N[C@@H](CCC(N)=O)C(=O)N[C@@H](CCCNC(=N)N)C(=O)N[C@@H](C)C(=O)N[C@@H](Cc1ccccc1)C(=O)N[C@H](C(=O)N[C@@H](CC(N)=O)C(=O)N[C@@H](Cc1c[nH]c2ccccc12)C(=O)N[C@@H](CC(C)C)C(=O)N[C@@H](CC(C)C)C(=O)N[C@@H](C)C(=O)NC(C)(C)C(=O)N[C@@H](CCCCN)C(N)=O)C(C)C [Compound 15] (H-Y[Aib]EGTFTSDYSIALEKKAQRAFVNWLLA[Aib]K-NH2) | 0.01 nM
CC[C@H](C)[C@H](NC(=O)[C@H](CO)NC(=O)[C@H](Cc1ccc(O)cc1)NC(=O)[C@H](CC(=O)O)NC(=O)[C@H](CO)NC(=O)[C@@H](NC(=O)[C@H](Cc1ccccc1)NC(=O)[C@@H](NC(=O)CNC(=O)[C@H](CCC(=O)O)NC(=O)C(C)(C)NC(=O)[C@@H](N)Cc1ccc(O)cc1)[C@@H](C)O)[C@@H](C)O)C(=O)N[C@@H](Cc1ccc(O)cc1)C(=O)N[C@@H](CC(C)C)C(=O)N[C@@H](CC(=O)O)C(=O)N[C@@H](CO)C(=O)N[C@@H](CCCCN)C(=O)N[C@@H](C)C(=O)N[C@@H](CCCCN)C(=O)N[C@@H](CCCNC(=N)N)C(=O)N[C@@H](C)C(=O)N[C@@H](Cc1ccccc1)C(=O)N[C@H](C(=O)N[C@@H](CC(N)=O)C(=O)N[C@@H](Cc1c[nH]c2ccccc12)C(=O)N[C@@H](CC(C)C)C(=O)N[C@@H](CC(C)C)C(=O)N[C@@H](C)C(=O)NC(C)(C)C(=O)N[C@@H](CCCCN)C(N)=O)C(C)C [Compound 18] (H-Y[Aib]EGTFTSDYSIYLDSKAKRAFVNWLLA[Aib]K-NH2) | 0.015 nM
CC[C@H](C)[C@H](NC(=O)[C@H](CO)NC(=O)[C@H](Cc1ccc(O)cc1)NC(=O)[C@H](CC(=O)O)NC(=O)[C@H](CO)NC(=O)[C@@H](NC(=O)[C@H](Cc1ccccc1)NC(=O)[C@@H](NC(=O)CNC(=O)[C@H](CCC(=O)O)NC(=O)C(C)(C)NC(=O)[C@@H](N)Cc1ccc(O)cc1)[C@@H](C)O)[C@@H](C)O)C(=O)N[C@@H](Cc1ccc(O)cc1)C(=O)N[C@@H](CC(C)C)C(=O)N[C@@H](CC(=O)O)C(=O)N[C@@H](CCCCN)C(=O)N[C@@H](CCCCN)C(=O)N[C@@H](C)C(=O)N[C@@H](CCC(N)=O)C(=O)N[C@@H](CCCNC(=N)N)C(=O)N[C@@H](C)C(=O)N[C@@H](Cc1ccccc1)C(=O)N[C@H](C(=O)N[C@@H](CCCCN)C(=O)N[C@@H](Cc1c[nH]c2ccccc12)C(=O)N[C@@H](CC(C)C)C(=O)N[C@@H](CC(C)C)C(=O)N[C@@H](C)C(=O)NC(C)(C)C(=O)N[C@@H](CCCCN)C(N)=O)C(C)C [Compound 20] (H-Y[Aib]EGTFTSDYSIYLDKKAQRAFVKWLLA[Aib]K-NH2) | 0.009 nM
CC[C@H](C)[C@H](NC(=O)[C@H](CO)NC(=O)[C@H](Cc1ccc(O)cc1)NC(=O)[C@H](CC(=O)O)NC(=O)[C@H](CO)NC(=O)[C@@H](NC(=O)[C@H](Cc1ccccc1)NC(=O)[C@@H](NC(=O)CNC(=O)[C@H](CCC(=O)O)NC(=O)C(C)(C)NC(=O)[C@@H](N)Cc1ccc(O)cc1)[C@@H](C)O)[C@@H](C)O)C(=O)N[C@@H](Cc1ccc(O)cc1)C(=O)N[C@@H](CC(C)C)C(=O)N[C@@H](CC(=O)O)C(=O)N[C@@H](CCCCN)C(=O)N[C@@H](CCCCN)C(=O)N[C@@H](C)C(=O)N[C@@H](CCC(N)=O)C(=O)N[C@@H](CCCNC(=N)N)C(=O)N[C@@H](C)C(=O)N[C@@H](Cc1ccccc1)C(=O)N[C@H](C(=O)N[C@@H](CC(N)=O)C(=O)N[C@@H](Cc1c[nH]c2ccccc12)C(=O)N[C@@H](CC(C)C)C(=O)N[C@H](C(=O)N[C@@H](C)C(=O)NC(C)(C)C(=O)N[C@@H](CCCCN)C(N)=O)C(C)C)C(C)C [Compound 21] (H-Y[Aib]EGTFTSDYSIYLDKKAQRAFVNWLVA[Aib]K-NH2) | 0.009 nM
